Here are results for 18 molecules from US7863446B2, “Heterocycles” (Orchid Research Laboratories Limited, priority 2006, dated 2011).

Assay [1] has as its system TNF-α. Put plainly: In vitro measurement of TNF-α in human PBMC (LPS stimulated). Format: cell-based. Conditions: for inhibition at 1 µM: NA = No activity, read-out: TNF-α Inhibition (%) at Conc. (1 μM); for inhibition at 10 µM: read-out: TNF-α Inhibition (%) at Conc. (10 μM). The procedure: In Vitro Measurement of Tumor Necrosis Factor Alpha (TNF-α)
This assay determines the effect of test compounds on the production of TNF α in human Peripheral Blood Mononuclear Cells (PBMC). Compounds were tested for their ability to inhibit the activity of TNF α in human PBMC. PBMC were isolated from blood (of healthy volunteers) using BD Vacutainer CPT™ (Cell preparation tube, BD Bio Science) and suspended in RPMI medium (Physiol. Res. 52: 593-598, 2003). The test compounds were pre-incubated with PBMC (0.5 million/incubation well) for 15 minutes at 37° C. and then stimulated with Lipopolysaccharide (Escherichia coli: B4; 1 μg/ml) for 18 hours at 37° C. in 5% CO2. The levels of TNF-α in the cell culture medium were estimated using enzyme-linked immunosorbent assay performed in a 96 well format as per the procedure of the manufacturer (Cayman Chemical, Ann Arbor, USA).

Assay [2] deals with IL-6. Kind of assay: In vitro measurement of IL-6 in human PBMC (LPS stimulated). Format: cell-based. Conditions: for inhibition at 1 µM: read-out: IL-6 Inhibition (%) Conc. (1 μM); for inhibition at 10 µM: read-out: IL-6 Inhibition (%) Conc. (10 μM). The procedure:
In Vitro Measurement of Interleukin-6(IL-6)
This assay determins the effect of test compounds on the production of IL-6 in human PBMC (Physiol. Res. 52: 593-598, 2003). Compounds were tested for their ability to inhibit the activity of IL-6 in human PBMC. PBMC were isolated from blood using BD Vacutainer CPT™ Cell preparation tube (BD Bio Science) and suspended in RPMI medium. The test compounds were pre-incubated with PBMC (0.5 million/incubation well) for 15 minutes at 37° C. and then stimulated with Lipopolysaccharide (Escherichia coli: B4; 1 μg/ml) for 18 hours at 37° C. in 5% CO2. The levels of IL-6 in cell culture medium were estimated using enzyme-linked immunosorbent assay performed in a 96 well format as per the procedure of the manufacturer (Cayman Chemical, Ann Arbor, USA).

Assay [3] has as its target T1, purified recombinant COX-2 (Homo sapiens, UniProt P35354).
T1 sequence (P35354 18-604): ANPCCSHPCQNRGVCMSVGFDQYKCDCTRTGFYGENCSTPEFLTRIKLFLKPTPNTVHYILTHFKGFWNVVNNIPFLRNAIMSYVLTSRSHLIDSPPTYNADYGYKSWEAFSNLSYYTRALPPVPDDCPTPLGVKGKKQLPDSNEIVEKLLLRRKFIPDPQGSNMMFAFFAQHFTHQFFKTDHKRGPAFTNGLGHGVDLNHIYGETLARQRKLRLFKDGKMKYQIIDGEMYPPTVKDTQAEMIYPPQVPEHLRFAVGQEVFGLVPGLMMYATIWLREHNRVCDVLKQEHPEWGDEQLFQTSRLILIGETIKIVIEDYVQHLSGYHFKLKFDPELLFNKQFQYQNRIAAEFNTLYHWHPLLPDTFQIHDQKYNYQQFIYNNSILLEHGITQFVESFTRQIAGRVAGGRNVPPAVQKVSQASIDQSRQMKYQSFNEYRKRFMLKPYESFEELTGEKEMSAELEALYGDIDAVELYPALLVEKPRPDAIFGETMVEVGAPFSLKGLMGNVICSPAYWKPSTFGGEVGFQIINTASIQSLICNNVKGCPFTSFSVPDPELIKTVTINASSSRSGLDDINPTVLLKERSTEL
Put plainly: COX-2 enzyme based assay. Format: biochemical. Conditions: NA = No activity, read-out: % Inhibition in rEnzyme Assay COX-2. The protocol: (§1) COX-1 and COX-2 Enzyme Based Assay
(§2) COX-1 and COX-2 enzyme based assays were carried out to check the inhibitory potential of the test compounds on the production of prostaglandin by purified recombinant COX-1/COX-2 enzyme (Proc. Nat. Acad. Sci. USA, 88, 2692-2696, 1991; J. Clin. Immunoassay 15, 116-120, 1992) In this assay, the potential of the test compound to inhibit the production of prostaglandin either by COX-1 or COX-2 from arachidonic acid (substrate) was measured. This was an enzyme based in-vitro assay to evaluate selective COX inhibition with good reproducibility.
(§3) Arachidonic acid was converted to PGH2 (Intermediate product) by COX1/COX-2 in the presence or absence of the test compound. The reaction was carried out at 37° C. and after 2 minutes it was stopped by adding 1M HCl. Intermediate product PGH2 was converted to a stable prostanoid product PGF2αby SnCl2 reduction. The amount of PGF2α, produced in the reaction was inversely proportional to the COX inhibitory potential of the test compound. The prostanoid product was quantified via enzyme immunoassay (EIA) using a broadly specific antibody that binds to all the major forms of prostaglandin, using Cayman ELISA kit as per the procedure outlined by the manufacturer (Cayman Chemicals, Ann Arbor, USA).

Assay [4] deals with purified recombinant COX-1 (Homo sapiens, UniProt P23219). Put plainly: COX-1 enzyme based assay. Format: biochemical. Particulars: NA = No activity, read-out: % Inhibition in rEnzyme Assay COX-1. The protocol: as §1, §2, §3
purified recombinant COX-1, sequence (P23219 24-599): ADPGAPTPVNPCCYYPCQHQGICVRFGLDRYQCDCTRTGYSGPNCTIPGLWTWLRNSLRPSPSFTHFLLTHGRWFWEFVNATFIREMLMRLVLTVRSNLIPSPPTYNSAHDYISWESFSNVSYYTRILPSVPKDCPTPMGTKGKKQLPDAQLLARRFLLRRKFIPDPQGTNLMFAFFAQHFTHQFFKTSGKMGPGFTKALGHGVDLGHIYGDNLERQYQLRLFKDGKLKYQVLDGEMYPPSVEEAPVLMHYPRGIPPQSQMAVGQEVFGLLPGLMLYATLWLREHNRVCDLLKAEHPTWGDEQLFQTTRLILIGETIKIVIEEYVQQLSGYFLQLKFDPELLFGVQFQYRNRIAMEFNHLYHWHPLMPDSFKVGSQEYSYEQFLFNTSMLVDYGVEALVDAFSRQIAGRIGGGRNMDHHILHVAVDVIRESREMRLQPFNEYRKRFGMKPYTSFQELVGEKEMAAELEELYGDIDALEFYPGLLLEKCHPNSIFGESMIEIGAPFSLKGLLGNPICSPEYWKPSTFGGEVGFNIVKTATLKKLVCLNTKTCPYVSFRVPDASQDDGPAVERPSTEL

`NNc1nc(C(F)(F)F)nc(-c2cccnc2)c1-c1ccccc1` [Example 11, 4-Hydrazino-5-phenyl-6-pyridin-3-yl-2-(trifluoromethyl)pyrimidine]: in assay [1], the inhibition at 1 µM is 12.7% and the inhibition at 10 µM stood at 50.7%.

Regarding `NNc1nc(C(F)(F)F)nc(-c2ccncc2)c1-c1ccccc1` [Example 12, 4-Hydrazino-5-phenyl-6-pyridin-4-yl-2-(trifluoromethyl)pyrimidine], in assay [1], the inhibition at 1 µM was determined as 34.8% and the inhibition at 10 µM was determined as 78.4%.

In the case of `NNc1nc(C(F)(F)F)nc(-c2ccncc2)c1-c1ccc(F)cc1` [Example 13, 5-(4-Fluorophenyl)-4-hydrazino-6-pyridin-4-yl-2-(trifluoromethyl)pyrimidine], in assay [1], the inhibition at 1 µM is 25.8% and the inhibition at 10 µM worked out at 35.3%.

Turning to `CS(=O)(=O)c1ccc(-c2nc(C(F)(F)F)nc(OS(=O)(=O)CCCCl)c2-c2ccccc2)cc1` [Example 19, 6-[4-(Methylsulfonyl)phenyl]-5-phenyl-2-(trifluoromethyl)pyrimidin-4-yl-3-chloropropane-1-sulfonate], in assay [2], the inhibition at 1 µM amounted to 27.9% and the inhibition at 10 µM worked out at 41.9%.

As to `CS(=O)(=O)c1ccc(-c2nc(C(F)(F)F)nc(OS(=O)(=O)c3ccc(OC(F)(F)F)cc3)c2-c2ccccc2)cc1` [Example 24, 6-[4-(Methylsulfonyl)phenyl]-5-phenyl-2-(trifluoromethyl)pyrimidin-4-yl-4-trifluoromethoxybenzenesulfonate], in assay [1], the inhibition at 1 µM stood at 53.9% and the inhibition at 10 µM amounted to 32.9%.

On to `CS(=O)(=O)c1ccc(-c2nc(C(F)(F)F)nc(OS(=O)(=O)c3cccs3)c2-c2ccccc2)cc1` [Example 25, 6-[4-(Methylsulfonyl)phenyl]-5-phenyl-2-(trifluoromethyl)pyrimidin-4-yl thiophene-2-sulfonate], for which, in assay [1], the inhibition at 1 µM is 38.8% and the inhibition at 10 µM is 94%.

On to `CS(=O)(=O)c1ccc(-c2nc(C(F)(F)F)nc(OS(=O)(=O)c3ccc(F)cc3)c2-c2ccccc2)cc1` [Example 26, 6-[4-(Methylsulfonyl)phenyl]-5-phenyl-2-(trifluoromethyl)pyrimidin-4-yl-4-fluorobenzenesulfonate], for which, in assay [1], the inhibition at 1 µM came out at 32.7% and the inhibition at 10 µM was determined as 50.8%.

Regarding `CS(=O)(=O)c1ccc(-c2nc(C(F)(F)F)nc(OS(=O)(=O)c3ccccc3F)c2-c2ccccc2)cc1` [Example 27, 6-[4-(Methylsulfonyl)phenyl]-5-phenyl-2-(trifluoromethyl)pyrimidin-4-yl-2-fluorobenzenesulfonate], in assay [1], the inhibition at 1 µM was determined as 43.5% and the inhibition at 10 µM was determined as 51.9%.

For the molecule `NS(=O)(=O)c1ccc(-c2nc(C(F)(F)F)nc(N3CCNCC3)c2-c2ccc(F)cc2)cc1` [Example 31, 4-[5-(4-Fluorophenyl)-6-piperazin-1-yl-2-(trifluoromethyl)pyrimidin-4-yl]benzenesulfonamide], in assay [1], the inhibition at 1 µM is 37.4% and the inhibition at 10 µM stood at 62.5%.

For `CNS(=O)(=O)c1ccc(-c2c(-c3ccc(S(C)(=O)=O)cc3)nc(C(F)(F)F)nc2N2CCOCC2)cc1` [Example 34, 4-{4-(Morpholin-4yl)-6-[4-(methylsulfonyl)phenyl]-2-(trifluoromethyl)pyrimidin-5-yl}-N-methylbenzenesulfonamide], the inhibition at 10 µM in assay [1] was 80.9%.

For the molecule `Cc1cnc(C(=O)N2CCN(c3nc(C(F)(F)F)nc(-c4ccc(S(C)(=O)=O)cc4)c3-c3ccccc3)CC2)cn1` [Example 36, 4-[4-(Methylsulfonyl)phenyl]-6-{4-[(5-methylpyrazin-2-yl)carbonyl]piperazin-1-yl}-5-phenyl-2-(trifluoromethyl)pyrimidine], in assay [1], the inhibition at 1 µM is 51.3% and the inhibition at 10 µM was 26.9%.

Regarding `NS(=O)(=O)c1cccc(-c2c(-c3ccccc3)nc(C(F)(F)F)nc2N2CCN(c3ccccn3)CC2)c1` [Example 58], the inhibition at 1 µM in assay [3] (1 μM) came to 11.2%; in assay [4] (1 μM) it was 10.2%. Also, the results for the inhibition at 10 µM in assay [3] (10 μM) and in assay [4] (10 μM) were 2.62% and 9.59%, respectively.

As to `CCOC(=O)C1CCN(c2nc(C(F)(F)F)nc(-c3ccc(F)cc3)c2-c2cccc(S(N)(=O)=O)c2)CC1` [Example 59, Ethyl-1-[5-(3-aminosulfonylphenyl)-6-(4-fluorophenyl)-2-(trifluoromethyl)pyrimidin-4-yl]piperidine-4-carboxylate], in assay [2], the inhibition at 1 µM is 26.1% and the inhibition at 10 µM came out at 36.8%.

On to `CCOC(=O)C1CCN(c2nc(C(F)(F)F)nc(-c3ccccc3)c2-c2cccc(S(N)(=O)=O)c2)CC1` [Example 61, Ethyl 1-[6-phenyl-5-(3-aminosulfonylphenyl)1-2-(trifluoromethyl)pyrimidin-4-yl]piperidine-4-carboxylate], for which, in assay [2], the inhibition at 1 µM was 24.5% and the inhibition at 10 µM is 54.5%.

In the case of `COc1cc(N2CCN(c3nc(C(F)(F)F)nc(-c4ccc(F)cc4)c3-c3cccc(S(N)(=O)=O)c3)CC2)nc(OC)n1` [Example 66, 4-[4-(2,6-Dimethoxypyrimidin-4-yl)piperazin-1-yl]-5-(3-aminosulfonylphenyl)-6-(4-fluorophenyl)-2-(trifluoromethyl)pyrimidine], in assay [1], the inhibition at 1 µM amounted to 57.9% and the inhibition at 10 µM was 80.7%.

Take `CS(=O)(=O)N1CCN(c2nc(C(F)(F)F)nc(-c3ccc(F)cc3)c2-c2cccc(S(N)(=O)=O)c2)CC1` [Example 78, 3-[4-[4-(Methylsulfonyl)piperazin-1-yl]-6-(4-fluorophenyl)-2-(trifluoromethyl)pyrmidin-5-yl]benzenesulfonamide]: in assay [2], the inhibition at 1 µM was found to be 22.3% and the inhibition at 10 µM came to 25.3%.

In the case of `NS(=O)(=O)c1cccc(-c2c(-c3ccccc3)nc(C(F)(F)F)nc2N2CCN(c3ccc([N+](=O)[O-])cn3)CC2)c1` [Example 117, 3-[6-{4-[5-(Nitro)pyridin-2-yl]piperazin-1-yl}-4-phenyl-2-(trifluoromethyl)pyrimidin-5-yl]benzenesulfonamide], in assay [1], the inhibition at 1 µM worked out at 69.7% and the inhibition at 10 µM worked out at 86.5%.

Consider `CC(=O)Nc1ccc(N2CCN(c3nc(C(F)(F)F)nc(-c4ccc(S(C)(=O)=O)cc4)c3-c3ccc(F)cc3)CC2)nc1` [Example 119, 4-[5-(Acetylamino)pyridin-2-yl]piperazin-1-yl-5-(4-fluorophenyl)-6-[4-(methylsulfonyl)phenyl]-2-(trifluoromethyl)pyrimidine], for which, in assay [1], the inhibition at 1 µM worked out at 88.9% and the inhibition at 10 µM is 91.5%.

Broadly, the inhibition is the percentage by which the read-out fell short of the control.
